Assay results published in ChEMBL document CHEMBL3603792, “The discovery of oxazolones-grafted spirooxindoles via three-component diversity oriented synthesis and their preliminary biological evaluation” (Bioorg Med Chem Lett, 2015).
pIC50: −log10 of the molar value. One block for each compound: values may come before it. The source made the active and inactive calls. The calls are words filed in the database; no cut-off is given here.

Experiments:
PANC-1 = assay: Cytotoxicity against human PANC1 cells assessed as inhibition of cell growth at 10 ug/ml incubated for 48 hrs by MTT assay; format: functional, cell-based
MCF7 [1] = assay: Cytotoxicity against human MCF7 cells assessed as inhibition of cell growth at 10 ug/ml incubated for 48 hrs by MTT assay; format: functional, cell-based
HepG2 [2] = assay: Cytotoxicity against human HepG2 cells assessed as inhibition of cell growth at 10 ug/ml incubated for 48 hrs by MTT assay; format: functional, cell-based
HeLa [3] = assay: Cytotoxicity against human HeLa cells assessed as inhibition of cell growth at 10 ug/ml incubated for 48 hrs by MTT assay; format: functional, cell-based
A-375 = assay: Cytotoxicity against human A375 cells assessed as inhibition of cell growth at 10 ug/ml incubated for 48 hrs by MTT assay; format: functional, cell-based
A549 = assay: Cytotoxicity against human A549 cells assessed as inhibition of cell growth at 10 ug/ml incubated for 48 hrs by MTT assay; format: functional, cell-based
SK-OV-3 = assay: Cytotoxicity against human SKOV3 cells assessed as inhibition of cell growth at 10 ug/ml incubated for 48 hrs by MTT assay; format: functional, cell-based
K562 = assay: Cytotoxicity against human K562 cells assessed as inhibition of cell growth at 10 ug/ml incubated for 48 hrs by MTT assay; format: functional, cell-based
MCF7 [4] = assay: cells; format: functional, cell-based; settings: Homo sapiens, MCF7, 48 h
Description: Cytotoxicity against human MCF7 cells assessed as inhibition of cell growth incubated for 48 hrs by MTT assay

MDA-MB-231 = assay: cells; format: functional, cell-based; settings: Homo sapiens, MDA-MB-231, 48 h
Description: Cytotoxicity against human MDA-MB-231 cells assessed as inhibition of cell growth incubated for 48 hrs by MTT assay

MDA-MB-468 = assay: cells; format: functional, cell-based; settings: Homo sapiens, MDA-MB-468, 48 h
Description: Cytotoxicity against human MDA-MB-468 cells assessed as inhibition of cell growth incubated for 48 hrs by MTT assay

HepG2 [5] = assay: cells; format: functional, cell-based; settings: Homo sapiens, HepG2, 48 h
Description: Cytotoxicity against human HepG2 cells assessed as inhibition of cell growth incubated for 48 hrs by MTT assay

cells [6] = format: functional, cell-based; settings: Homo sapiens, HCCC9810, 48 h
Description: Cytotoxicity against human HCCC9810 cells assessed as inhibition of cell growth incubated for 48 hrs by MTT assay

cells [7] = format: functional, cell-based; settings: Homo sapiens, Huh-7, 48 h
Description: Cytotoxicity against human HuH7 cells assessed as inhibition of cell growth incubated for 48 hrs by MTT assay

MCF7 [8] = assay: Induction of apoptosis in human MCF7 cells at 50 uM incubated for 24 hrs by Hoechst 33342 staining; format: functional, cell-based
HeLa [9] = assay: Induction of apoptosis in human HeLa cells incubated for 12 hrs by Annexin V-FITC/PI staining based flow cytometry (reference value: 3.37%); format: functional
HeLa [10] = assay: Induction of apoptosis in human HeLa cells incubated for 24 hrs by Annexin V-FITC/PI staining based flow cytometry (reference value: 3.37%); format: functional
MCF7 [11] = assay: Induction of apoptosis in human MCF7 cells assessed as increase in PARP cleavage incubated for 24 hrs by Western blotting method; format: functional, cell-based

Compound: CN1C[C@@H](c2ccco2)[C@@]2(N=C(c3ccccc3)OC2=O)[C@@]12C(=O)N(Cc1ccccc1)c1ccccc12
growth inhibition (GI) (PANC-1): Active | growth inhibition (GI) (MCF7 [1]): Active | growth inhibition (GI) (HepG2 [2]): Active | growth inhibition (GI) (HeLa [3]): Active | growth inhibition (GI) (A-375): Active | growth inhibition (GI) (A549): Active | growth inhibition (GI) (SK-OV-3): Active | growth inhibition (GI) (K562): Active

Compound: CN1C(=O)[C@@]2(c3ccccc31)N(C)C[C@@H](c1cccc(Cl)c1)[C@@]21N=C(c2ccccc2)OC1=O
growth inhibition (GI) (PANC-1): Active | growth inhibition (GI) (MCF7 [1]): Active | growth inhibition (GI) (HepG2 [2]): Active | growth inhibition (GI) (HeLa [3]): Active | growth inhibition (GI) (A-375): Active | growth inhibition (GI) (A549): Active | growth inhibition (GI) (SK-OV-3): Active | growth inhibition (GI) (K562): Active

Compound: O=C1OC(c2ccccc2)=N[C@@]12[C@H](c1ccccc1)[C@H]1CCCN1[C@]21C(=O)N(Cc2ccccc2)c2ccccc21
growth inhibition (GI) (PANC-1): Active | growth inhibition (GI) (MCF7 [1]): Active | growth inhibition (GI) (HepG2 [2]): Active | growth inhibition (GI) (HeLa [3]): Active | growth inhibition (GI) (A-375): Active | growth inhibition (GI) (A549): Active | growth inhibition (GI) (SK-OV-3): Active | growth inhibition (GI) (K562): Active

Compound: O=C1OC(c2ccccc2)=N[C@@]12[C@H](c1cccc(Cl)c1)[C@H]1CCCN1[C@]21C(=O)Nc2ccc(Cl)cc21
growth inhibition (GI) (PANC-1): Active | growth inhibition (GI) (MCF7 [1]): Active | growth inhibition (GI) (HepG2 [2]): Active | growth inhibition (GI) (HeLa [3]): Active | growth inhibition (GI) (A-375): Active | growth inhibition (GI) (A549): Active | growth inhibition (GI) (SK-OV-3): Active | growth inhibition (GI) (K562): Active

Compound: CN1C[C@@H](c2ccccc2)[C@@]2(N=C(c3ccccc3)OC2=O)[C@@]12C(=O)Nc1ccccc12
growth inhibition (GI) (PANC-1): Active | growth inhibition (GI) (MCF7 [1]): Active | growth inhibition (GI) (HepG2 [2]): Active | growth inhibition (GI) (HeLa [3]): Active | growth inhibition (GI) (A-375): Active | growth inhibition (GI) (A549): Active | growth inhibition (GI) (SK-OV-3): Active | growth inhibition (GI) (K562): Active

Compound: CN1C[C@@H](c2ccccc2)[C@@]2(N=C(c3ccccc3)OC2=O)[C@@]12C(=O)N(Cc1ccccc1)c1ccccc12
growth inhibition (GI) (PANC-1): Active | growth inhibition (GI) (MCF7 [1]): Active | growth inhibition (GI) (HepG2 [2]): Active | growth inhibition (GI) (HeLa [3]): Active | growth inhibition (GI) (A-375): Active | growth inhibition (GI) (A549): Active | growth inhibition (GI) (SK-OV-3): Active | growth inhibition (GI) (K562): Active

pIC50 (MCF7 [4]): 5.09 | pIC50 (MDA-MB-231): 5.38 | pIC50 (MDA-MB-468): 5.47 | pIC50 (HepG2 [5]): 5.06 | pIC50 (cells [6]): 5.14 | pIC50 (cells [7]): 5.10
Compound: O=C1OC(c2ccccc2)=N[C@@]12[C@H](c1ccc(C(F)(F)F)cc1)[C@H]1CCCN1[C@]21C(=O)Nc2ccccc21
growth inhibition (GI) (PANC-1): Active | growth inhibition (GI) (MCF7 [1]): Active | growth inhibition (GI) (HepG2 [2]): Active | growth inhibition (GI) (HeLa [3]): Active | growth inhibition (GI) (A-375): Active | growth inhibition (GI) (A549): Active | growth inhibition (GI) (SK-OV-3): Active | growth inhibition (GI) (K562): Active | Activity (MCF7 [8]): Active | Activity (HeLa [9]): 16.17% | Activity (HeLa [10]): 44.64% | Activity (MCF7 [11]): Active

Compound: O=C1OC(c2ccccc2)=N[C@@]12[C@H](c1ccc(Cl)c(Cl)c1)[C@H]1CCCN1[C@]21C(=O)Nc2ccccc21
growth inhibition (GI) (PANC-1): Active | growth inhibition (GI) (MCF7 [1]): Active | growth inhibition (GI) (HepG2 [2]): Active | growth inhibition (GI) (HeLa [3]): Active | growth inhibition (GI) (A-375): Active | growth inhibition (GI) (A549): Active | growth inhibition (GI) (SK-OV-3): Active | growth inhibition (GI) (K562): Active

Compound: O=C1OC(c2ccccc2)=N[C@@]12[C@H](c1ccc(Cl)c(Cl)c1)[C@H]1CCCN1[C@]21C(=O)N(Cc2ccccc2)c2ccccc21
growth inhibition (GI) (PANC-1): Active | growth inhibition (GI) (MCF7 [1]): Active | growth inhibition (GI) (HepG2 [2]): Active | growth inhibition (GI) (HeLa [3]): Active | growth inhibition (GI) (A-375): Active | growth inhibition (GI) (A549): Active | growth inhibition (GI) (SK-OV-3): Active | growth inhibition (GI) (K562): Active

Compound: O=C1OC(c2ccccc2)=N[C@@]12[C@H](c1ccccc1)[C@H]1CCCN1[C@]21C(=O)Nc2ccccc21
growth inhibition (GI) (PANC-1): Active | growth inhibition (GI) (MCF7 [1]): Active | growth inhibition (GI) (HepG2 [2]): Active | growth inhibition (GI) (HeLa [3]): Active | growth inhibition (GI) (A-375): Active | growth inhibition (GI) (A549): Active | growth inhibition (GI) (SK-OV-3): Active | growth inhibition (GI) (K562): Active

Compound: CN1C[C@@H](c2ccc(Cl)c(Cl)c2)[C@@]2(N=C(c3ccccc3)OC2=O)[C@@]12C(=O)N(Cc1ccccc1)c1ccccc12
growth inhibition (GI) (PANC-1): Active | growth inhibition (GI) (MCF7 [1]): Active | growth inhibition (GI) (HepG2 [2]): Active | growth inhibition (GI) (HeLa [3]): Active | growth inhibition (GI) (A-375): Active | growth inhibition (GI) (A549): Active | growth inhibition (GI) (SK-OV-3): Active | growth inhibition (GI) (K562): Active

Compound: COc1cc([C@@H]2[C@H]3CCCN3[C@]3(C(=O)N(Cc4ccccc4)c4ccccc43)[C@]23N=C(c2ccccc2)OC3=O)cc(OC)c1OC
growth inhibition (GI) (PANC-1): Active | growth inhibition (GI) (MCF7 [1]): Active | growth inhibition (GI) (HepG2 [2]): Active | growth inhibition (GI) (HeLa [3]): Active | growth inhibition (GI) (A-375): Active | growth inhibition (GI) (A549): Active | growth inhibition (GI) (SK-OV-3): Active | growth inhibition (GI) (K562): Active

Compound: O=C1OC(c2ccccc2)=N[C@@]12[C@H](c1ccccc1)CN[C@]21C(=O)Nc2ccccc21
growth inhibition (GI) (PANC-1): Active | growth inhibition (GI) (MCF7 [1]): Active | growth inhibition (GI) (HepG2 [2]): Active | growth inhibition (GI) (HeLa [3]): Active | growth inhibition (GI) (A-375): Active | growth inhibition (GI) (A549): Active | growth inhibition (GI) (SK-OV-3): Active | growth inhibition (GI) (K562): Active

Compound: O=C1OC(c2ccccc2)=N[C@@]12[C@H](c1cccc(Cl)c1)[C@H]1CCCN1[C@]21C(=O)Nc2ccccc21
growth inhibition (GI) (PANC-1): Active | growth inhibition (GI) (MCF7 [1]): Active | growth inhibition (GI) (HepG2 [2]): Active | growth inhibition (GI) (HeLa [3]): Active | growth inhibition (GI) (A-375): Active | growth inhibition (GI) (A549): Active | growth inhibition (GI) (SK-OV-3): Active | growth inhibition (GI) (K562): Active

Compound: O=C1OC(c2ccccc2)=N[C@@]12[C@H](c1ccccc1)[C@H]1CSCN1[C@]21C(=O)Nc2ccccc21
growth inhibition (GI) (PANC-1): Active | growth inhibition (GI) (MCF7 [1]): Active | growth inhibition (GI) (HepG2 [2]): Active | growth inhibition (GI) (HeLa [3]): Active | growth inhibition (GI) (A-375): Active | growth inhibition (GI) (A549): Active | growth inhibition (GI) (SK-OV-3): Active | growth inhibition (GI) (K562): Active

pIC50 (MCF7 [4]): 5.26 | pIC50 (MDA-MB-231): 5.29 | pIC50 (MDA-MB-468): 5.31 | pIC50 (HepG2 [5]): 5.17 | pIC50 (cells [6]): < 5.00 | pIC50 (cells [7]): 5.15
Compound: CNC(=O)c1cc(Oc2ccc(NC(=O)Nc3ccc(Cl)c(C(F)(F)F)c3)cc2)ccn1 [SORAFENIB]
